Results from the supplement of paper PMC9663587.

Compound: C1=CC2=C(C=CC(=C2)C=C3C(=O)NC(=NCC4=CC=CS4)S3)N=C1 [R0-3306]
Test: increase in dead-cell fraction, 72 h; higher = more death;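 note: breast cancer cell lines in 384-well plates, stained with Hoechst plus LIVE/DEAD far red dye and imaged, cells above an LDR intensity threshold counted dead, Hoechst-negative corpses included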

## AU565
0.001 µM
  increase in dead-cell fraction: -0.0007
0.003162 µM
  increase in dead-cell fraction: 0.0211
0.01 µM
  increase in dead-cell fraction: 0.0272
0.03162 µM
  increase in dead-cell fraction: 0.005
0.1 µM
  increase in dead-cell fraction: 0.0121
0.3162 µM
  increase in dead-cell fraction: 0.0139
1 µM
  increase in dead-cell fraction: 0.0267
3.162 µM
  increase in dead-cell fraction: 0.0545
10 µM
  increase in dead-cell fraction: 0.329
